Key:
lambsquarters [1] = assay: Test Example 4: herbicidal effect by soil treatment (Table 19, symbol O); assay type: in vivo, lambsquarters (Chenopodium album); conditions: amount of applied herbicide 320 g/ha
Procedure, shortened: (§1)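 Emulsion of test compound, water-diluted to predetermined amount, sprayed on soil after sowing (seed depth ~1.5 cm, sterilized diluvial soil). Greenhouse, 25–30° C. Effect graded at three weeks post-spray.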

windgrass [2] = assay: Test Example 5: herbicidal effect by foliage application, plastic box (Table 20, symbol L); assay type: in vivo, windgrass (Apera spica-venti)
Procedure, shortened: (§2)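 Post-emergence foliar test in sterilized diluvial soil. Compound applied as water-diluted emulsion at a predetermined rate to 14-day-old plants; evaluation at three weeks.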

Italian ryegrass [3] = assay: Test Example 4: herbicidal effect by soil treatment (Table 19, symbol K); assay type: in vivo, Italian ryegrass (Lolium multiflorum); conditions: amount of applied herbicide 320 g/ha
Procedure, shortened: as §1

redroot pigweed [4] = assay: Test Example 4: herbicidal effect by soil treatment (Table 19, symbol N); assay type: in vivo, redroot pigweed (Amaranthus retroflexus); conditions: amount of applied herbicide 320 g/ha
Procedure, shortened: as §1

southern crabgrass [5] = assay: Test Example 5: herbicidal effect by foliage application, plastic box (Table 20, symbol F); assay type: in vivo, southern crabgrass (Digitaria ciliaris)
Procedure, shortened: as §2

rice flat sedge = assay: Test Example 3: herbicidal effect by foliage application, Wagner pot (Table 18, symbol E); assay type: in vivo, rice flat sedge (Cyperus iria); conditions: 320 g/ha
Procedure, shortened: (§3)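 Plants were sown in alluvial soil held under 0.1–0.5 cm standing water and grown 14 days in a greenhouse at 25–30 °C. An emulsifiable formulation, water-diluted to the set dose, was then sprayed onto the foliage, and effects were scored three weeks later using previously defined criteria.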

late watergrass = assay: Test Example 1: herbicidal activity, application before weed generation under submerged conditions (Table 16, symbol A); assay type: in vivo, late watergrass (Echinochloa oryzicola); conditions: amount of applied herbicide 320 g/ha
Procedure, shortened: (§4)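 Alluvial soil was flooded to 4 cm depth, weed seeds were sown mixed and 2.5-leaf rice seedlings were transplanted. On sowing day, the compound's emulsion, diluted in water to a set dose, was applied to the water surface. Plants grew at 25–30 °C and were scored 0–5 after three weeks.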

velvetleaf [6] = assay: Test Example 4: herbicidal effect by soil treatment (Table 19, symbol M); assay type: in vivo, velvetleaf (Abutilon theophrasti); conditions: amount of applied herbicide 320 g/ha
Procedure, shortened: as §1

windgrass [7] = assay: Test Example 4: herbicidal effect by soil treatment (Table 19, symbol L); assay type: in vivo, windgrass (Apera spica-venti); conditions: amount of applied herbicide 320 g/ha
Procedure, shortened: as §1

wild oat [8] = assay: Test Example 5: herbicidal effect by foliage application, plastic box (Table 20, symbol I); assay type: in vivo, wild oat (Avena fatua)
Procedure, shortened: as §2

chickweed [9] = assay: Test Example 5: herbicidal effect by foliage application, plastic box (Table 20, symbol P); assay type: in vivo, common chickweed (Stellaria media); conditions: amount of applied herbicide 320 g/ha; foliage application after 14-day growth; evaluated three weeks after application
Procedure, shortened: as §2

barnyard grass [10] = assay: Test Example 5: herbicidal effect by foliage application, plastic box (Table 20, symbol H); assay type: in vivo, barnyard grass (Echinochloa crus-galli)
Procedure, shortened: as §2

blackgrass [11] = assay: Test Example 5: herbicidal effect by foliage application, plastic box (Table 20, symbol J); assay type: in vivo, blackgrass (Alopecurus myosuroides)
Procedure, shortened: as §2

green foxtail [12] = assay: Test Example 5: herbicidal effect by foliage application, plastic box (Table 20, symbol G); assay type: in vivo, green foxtail (Setaria viridis)
Procedure, shortened: as §2

green foxtail [13] = assay: Test Example 4: herbicidal effect by soil treatment (Table 19, symbol G); assay type: in vivo, green foxtail (Setaria viridis); conditions: amount of applied herbicide 320 g/ha
Procedure, shortened: as §1

persian speedwell [14] = assay: Test Example 5: herbicidal effect by foliage application, plastic box (Table 20, symbol R); assay type: in vivo, Persian speedwell (Veronica persica)
Procedure, shortened: as §2

barnyard grass [15] = assay: Test Example 4: herbicidal effect by soil treatment (Table 19, symbol H); assay type: in vivo, barnyard grass (Echinochloa crus-galli); conditions: amount of applied herbicide 320 g/ha
Procedure, shortened: as §1

chickweed [16] = assay: Test Example 4: herbicidal effect by soil treatment (Table 19, symbol P); assay type: in vivo, common chickweed (Stellaria media); conditions: amount of applied herbicide 320 g/ha
Procedure, shortened: as §1

velvetleaf [17] = assay: Test Example 5: herbicidal effect by foliage application, plastic box (Table 20, symbol M); assay type: in vivo, velvetleaf (Abutilon theophrasti)
Procedure, shortened: as §2

barnyard grass [18] = assay: Test Example 3: herbicidal effect by foliage application, Wagner pot (Table 18, symbol H); assay type: in vivo, barnyard grass (Echinochloa crus-galli); conditions: 320 g/ha
Procedure, shortened: as §3

oval-leafed pondweed = assay: Test Example 1: herbicidal activity, application before weed generation under submerged conditions (Table 16, symbol C); assay type: in vivo, oval-leafed pondweed (Monochoria vaginalis); conditions: amount of applied herbicide 320 g/ha
Procedure, shortened: as §4

lambsquarters [19] = assay: Test Example 5: herbicidal effect by foliage application, plastic box (Table 20, symbol O); assay type: in vivo, lambsquarters (Chenopodium album)
Procedure, shortened: as §2

Chinese sprangletop = assay: Test Example 3: herbicidal effect by foliage application, Wagner pot (Table 18, symbol D); assay type: in vivo, chinese sprangletop (Leptochloa chinensis); conditions: 320 g/ha
Procedure, shortened: as §3

wild oat [20] = assay: Test Example 4: herbicidal effect by soil treatment (Table 19, symbol I); assay type: in vivo, wild oat (Avena fatua); conditions: amount of applied herbicide 320 g/ha
Procedure, shortened: as §1

Italian ryegrass [21] = assay: Test Example 5: herbicidal effect by foliage application, plastic box (Table 20, symbol K); assay type: in vivo, Italian ryegrass (Lolium multiflorum)
Procedure, shortened: as §2

Japanese bulrush = assay: Test Example 1: herbicidal activity, application before weed generation under submerged conditions (Table 16, symbol B); assay type: in vivo, Japanese bulrush (Schoenoplectus juncoides); conditions: amount of applied herbicide 320 g/ha
Procedure, shortened: as §4

southern crabgrass [22] = assay: Test Example 4: herbicidal effect by soil treatment (Table 19, symbol F); assay type: in vivo, southern crabgrass (Digitaria ciliaris); conditions: amount of applied herbicide 320 g/ha
Procedure, shortened: as §1

blackgrass [23] = assay: Test Example 4: herbicidal effect by soil treatment (Table 19, symbol J); assay type: in vivo, blackgrass (Alopecurus myosuroides); conditions: amount of applied herbicide 320 g/ha
Procedure, shortened: as §1

redroot pigweed [24] = assay: Test Example 5: herbicidal effect by foliage application, plastic box (Table 20, symbol N); assay type: in vivo, redroot pigweed (Amaranthus retroflexus); conditions: amount of applied herbicide 320 g/ha; foliage application after 14-day growth; evaluated three weeks after application
Procedure, shortened: as §2

persian speedwell [25] = assay: Test Example 4: herbicidal effect by soil treatment (Table 19, symbol R); assay type: in vivo, Persian speedwell (Veronica persica); conditions: amount of applied herbicide 320 g/ha
Procedure, shortened: as §1

[26] = amount of applied herbicide 320 g/ha, foliage application after 14-day growth, evaluated three weeks after application
[27] = foliage application, 320 g/ha, three weeks after application

Structure (SMILES) | O: lambsquarters, herbicidal effect grade (lambsquarters [1]) | K: Italian ryegrass, herbicidal effect grade (Italian ryegrass [3]) | N: redroot pigweed, herbicidal effect grade (redroot pigweed [4]) | herbicidal effect on rice flat sedge (E) (rice flat sedge) | Herbicidal effect, A: late watergrass (late watergrass) | M: velvetleaf, herbicidal effect grade (velvetleaf [6]) | G: green foxtail, herbicidal effect grade (green foxtail [13]) | H: barnyard grass, herbicidal effect grade (barnyard grass [15]) | P: chickweed, herbicidal effect grade (chickweed [16]) | herbicidal effect on barnyard grass (H) (barnyard grass [18]) | Herbicidal effect, C: oval-leafed pondweed (oval-leafed pondweed) | herbicidal effect on Chinese sprangletop (D) (Chinese sprangletop) | I: wild oat, herbicidal effect grade (wild oat [20]) | Herbicidal effect, B: Japanese bulrush (Japanese bulrush) | F: southern crabgrass, herbicidal effect grade (southern crabgrass [22]) | J: blackgrass, herbicidal effect grade (blackgrass [23]) | other results
CCCC(=O)Oc1c(C)nn(C)c(=O)c1-c1c(-c2ccc3c(c2)OCCO3)sc2cc(F)c(F)cc12 [5-038] | 4 (Herbicidal rate of 70% or more and less than 90%) | 0 (Herbicidal rate of 5% or less (almost no effect)) | 2 (Herbicidal rate of 20% or more and less than 40%) | 4 (Herbicidal rate of 70% or more and less than 90%) | 4 (Herbicidal rate of 70% or more and less than 90%) | 0 (Herbicidal rate of 5% or less (almost no effect)) | 0 (Herbicidal rate of 5% or less (almost no effect)) | 0 (Herbicidal rate of 5% or less (almost no effect)) | 0 (Herbicidal rate of 5% or less (almost no effect)) | 2 (Herbicidal rate of 20% or more and less than 40%) | 4 (Herbicidal rate of 70% or more and less than 90%) | 2 (Herbicidal rate of 20% or more and less than 40%) | 0 (Herbicidal rate of 5% or less (almost no effect)) | 3 (Herbicidal rate of 40% or more and less than 70%) | 0 (Herbicidal rate of 5% or less (almost no effect)) | 0 (Herbicidal rate of 5% or less (almost no effect)) | Herbicidal effect by foliage application, L: windgrass (windgrass [2]; [26]): 0 (Herbicidal rate of 5% or less (almost no effect)); Herbicidal effect by foliage application, F: southern crabgrass (southern crabgrass [5]; [26]): 0 (Herbicidal rate of 5% or less (almost no effect)); L: windgrass, herbicidal effect grade (windgrass [7]): 0 (Herbicidal rate of 5% or less (almost no effect)); Herbicidal effect by foliage application, I: wild oat (wild oat [8]; [26]): 0 (Herbicidal rate of 5% or less (almost no effect)); Herbicidal effect by foliage application, P: chickweed (chickweed [9]): 5 (Herbicidal rate of 90% or more (almost completely withered)); Herbicidal effect by foliage application, H: barnyard grass (barnyard grass [10]; [26]): 0 (Herbicidal rate of 5% or less (almost no effect)); Herbicidal effect by foliage application, J: blackgrass (blackgrass [11]; [26]): 0 (Herbicidal rate of 5% or less (almost no effect)); Herbicidal effect by foliage application, G: green foxtail (green foxtail [12]; [26]): 0 (Herbicidal rate of 5% or less (almost no effect)); Herbicidal effect by foliage application, R: persian speedwell (persian speedwell [14]; [26]): 5 (Herbicidal rate of 90% or more (almost completely withered)); Herbicidal effect by foliage application, M: velvetleaf (velvetleaf [17]; [26]): 3 (Herbicidal rate of 40% or more and less than 70%); Herbicidal effect by foliage application, O: lambsquarters (lambsquarters [19]; [26]): 1 (Herbicidal rate of 5% or more and less than 20%); Herbicidal effect by foliage application, K: Italian ryegrass (Italian ryegrass [21]; [26]): 0 (Herbicidal rate of 5% or less (almost no effect)); Herbicidal effect by foliage application, N: redroot pigweed (redroot pigweed [24]): 2 (Herbicidal rate of 20% or more and less than 40%)
COc1cc2sc(-c3ccccc3OC)c(-c3c(O)c(C)nn(C)c3=O)c2cc1F [5-064] | 3 (Herbicidal rate of 40% or more and less than 70%) | 0 (Herbicidal rate of 5% or less (almost no effect)) | 4 (Herbicidal rate of 70% or more and less than 90%) | 5 (Herbicidal rate of 90% or more (almost completely withered)) | 2 (Herbicidal rate of 20% or more and less than 40%) | 2 (Herbicidal rate of 20% or more and less than 40%) | 4 (Herbicidal rate of 70% or more and less than 90%) | 4 (Herbicidal rate of 70% or more and less than 90%) | 4 (Herbicidal rate of 70% or more and less than 90%) | 5 (Herbicidal rate of 90% or more (almost completely withered)) | 0 (Herbicidal rate of 5% or less (almost no effect)) | 2 (Herbicidal rate of 20% or more and less than 40%) | 0 (Herbicidal rate of 5% or less (almost no effect)) | 0 (Herbicidal rate of 5% or less (almost no effect)) | 3 (Herbicidal rate of 40% or more and less than 70%) | 1 (Herbicidal rate of 5% or more and less than 20%) | herbicidal effect on windgrass (L) (windgrass [2]; [27]): 5 (Herbicidal rate of 90% or more (almost completely withered)); herbicidal effect on southern crabgrass (F) (southern crabgrass [5]; [27]): 4 (Herbicidal rate of 70% or more and less than 90%); herbicidal effect on wild oat (I) (wild oat [8]; [27]): 4 (Herbicidal rate of 70% or more and less than 90%); herbicidal effect on barnyard grass (H) (barnyard grass [10]; [27]): 4 (Herbicidal rate of 70% or more and less than 90%); herbicidal effect on blackgrass (J) (blackgrass [11]; [27]): 4 (Herbicidal rate of 70% or more and less than 90%); herbicidal effect on green foxtail (G) (green foxtail [12]; [27]): 5 (Herbicidal rate of 90% or more (almost completely withered)); herbicidal effect on persian speedwell (R) (persian speedwell [14]; [27]): 5 (Herbicidal rate of 90% or more (almost completely withered)); herbicidal effect on velvetleaf (M) (velvetleaf [17]; [27]): 4 (Herbicidal rate of 70% or more and less than 90%); herbicidal effect on lambsquarters (O) (lambsquarters [19]; [27]): 3 (Herbicidal rate of 40% or more and less than 70%); R: persian speedwell, herbicidal effect grade (persian speedwell [25]): 5 (Herbicidal rate of 90% or more (almost completely withered)); herbicidal effect on Italian ryegrass (K) (Italian ryegrass [21]; [27]): 3 (Herbicidal rate of 40% or more and less than 70%)
